# From patent publication US20220380368A1, “SPIROCYCLIC ANDROGEN RECEPTOR PROTEIN DEGRADERS” (THE REGENTS OF THE UNIVERSITY OF MICHIGAN, priority 2019, published 2022)
# Numbering of substitutions follows the chain as printed. Read-outs that look alike come from different tables or passages of the source.
# What was measured:
# [1] = tested on: AR-amplified prostate cancer cells; conditions: cited from earlier work
# AR protein [2] = biological target: T1, AR protein (Homo sapiens, UniProt P10275, T878A); assay: Western blotting analysis of AR protein levels in LNCaP cells, band quantification, DC50/DC90; format: cell-based; conditions: prostate cancer LNCaP cells, 24 h treatment; for DC90: calculated from DC50 and Hillslope
# T1 construct: endogenous in cells; host or cells: LNCaP
# T1 sequence (P10275 1-920 T878A): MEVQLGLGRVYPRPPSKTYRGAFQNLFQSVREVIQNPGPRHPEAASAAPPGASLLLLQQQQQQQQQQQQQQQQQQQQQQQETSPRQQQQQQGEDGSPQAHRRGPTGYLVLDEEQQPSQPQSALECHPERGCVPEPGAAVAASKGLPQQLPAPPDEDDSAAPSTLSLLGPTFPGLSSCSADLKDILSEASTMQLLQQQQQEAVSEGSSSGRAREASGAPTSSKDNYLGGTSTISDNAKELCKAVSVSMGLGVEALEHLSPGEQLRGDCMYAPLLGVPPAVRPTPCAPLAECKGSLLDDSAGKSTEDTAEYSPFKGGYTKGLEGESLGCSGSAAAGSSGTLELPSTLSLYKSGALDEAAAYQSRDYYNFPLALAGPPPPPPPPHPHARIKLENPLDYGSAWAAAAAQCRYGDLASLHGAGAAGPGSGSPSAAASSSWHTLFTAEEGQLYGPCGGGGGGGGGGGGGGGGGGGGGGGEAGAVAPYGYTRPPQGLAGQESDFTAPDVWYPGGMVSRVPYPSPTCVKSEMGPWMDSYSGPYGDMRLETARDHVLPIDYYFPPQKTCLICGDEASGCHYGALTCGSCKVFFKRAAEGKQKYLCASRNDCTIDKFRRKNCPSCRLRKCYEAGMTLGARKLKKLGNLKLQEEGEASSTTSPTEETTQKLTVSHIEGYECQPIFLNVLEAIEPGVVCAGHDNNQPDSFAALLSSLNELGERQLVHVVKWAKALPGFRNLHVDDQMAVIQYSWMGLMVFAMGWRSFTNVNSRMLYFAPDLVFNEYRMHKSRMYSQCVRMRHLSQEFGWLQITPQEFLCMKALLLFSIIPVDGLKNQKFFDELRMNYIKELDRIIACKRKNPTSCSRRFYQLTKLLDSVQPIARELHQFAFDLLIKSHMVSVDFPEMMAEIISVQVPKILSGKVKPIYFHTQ
# Method: (§1) The appropriate cell line, e.g., prostate cancer LNCaP, Vcap, or 22RV1 cell line, was treated with Compounds of the Disclosure as indicated. The treated cells were lysed with RIPA buffer. The AR level in the cell lysates was examined by western blotting and a specific AR antibody (ab194196, Abcam, Cambridge, Mass. 02139) with concentration of 1:20,000. GAPDH was used as a loading control.
# (§2) Bands were quantified with ImageJ software. The relative numbers of each band obtained from normalization with its corresponding GAPDH level were compared with Prism 8 software. The DC50 values were produced from Prism 8, and the DC90 values were calculated with an equation=Bottom+(Top−Bottom)/(1+10^((Log EC50−X)*HillSlope) based on DC50 and Hillslope values.
# AR protein [3] = assay: Western blotting analysis of AR protein levels in 22RV1 cells, band quantification, DC50/DC90; format: cell-based; conditions: prostate cancer 22RV1 cells, 24 h treatment; for DC90: calculated from DC50 and Hillslope
# Method: as §1, §2
# AR protein [4] = biological target: T2, AR protein (Homo sapiens, UniProt P10275); assay: Western blotting analysis of AR protein levels in VCaP cells, band quantification, DC50/DC90; format: cell-based; conditions: prostate cancer Vcap cells, 24 h treatment; for DC90: calculated from DC50 and Hillslope
# T2 construct: endogenous in cells; host or cells: VCaP
# T2 sequence (P10275 1-920): T1 sequence (P10275 1-920 T878A) with A878T
# Method in brief: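 VCaP cells treated with compounds, lysed in RIPA and probed for AR by Western blot with GAPDH loading control. Band intensities normalised to GAPDH; DC50 from curve fit, DC90 calculated from DC50 and Hill slope via four-parameter equation.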
# [5] = Mouse PK studies after oral and IV dosing; format: in vivo
# Method: The pharmacokinetics of representative Compounds of the Disclosure were determined after oral and IV dosing at the concentrations indicated in mouse (Table 7). […] The vehicles used in these studies are either (i) 10% PEG400+90% PBS (adjusted to pH to 8.0 by 0.5 N NaOH); or (ii) 100% PEG200.
# AR protein [6] = assay: AR degradation in MDA-MB-453 cells (Western blotting); format: cell-based; conditions: 24 hr treatment
# Method: as §1, §2
structure (smiles),measurement,setting,value
"Cc1ncsc1-c1ccc(CNC(=O)C2C[C@@H](O)CN2C(=O)[C@@H](NC(=O)COCCCCOc2ccc(-c3ccc(N4C(=S)N(c5ccc(C#N)c(C(F)(F)F)c5)C(=O)C4(C)C)cc3)cc2)C(C)(C)C)cc1 (stereo partly drawn) [ARCC-4, (4R)-1-((S)-2-(2-(4-((4′-(3-(4-cyano-3-(trifluoromethyl)phenyl)-5,5-dimethyl-4-oxo-2-thioxoimidazolidin-1-yl)-[1,1′-biphenyl]-4-yl)oxy)butoxy)acetamido)-3,3-dimethylbutanoyl)-4-hydroxy-N-(4-(4-methylthiazol-5-yl)benzyl)pyrrolidine-2-carboxamide]","inducing apoptosis and inhibiting proliferation, compared with enzalutamide",[1],more potent and effective than enzalutamide
"C[C@H]1CC2(CCN(c3ccc(C(=O)N4CCN(C5CN(c6ccc7c(c6)C(=O)N(C6CCC(=O)NC6=O)C7=O)C5)CC4)cc3)CC2)CN1c1ccc(C#N)c(Cl)c1 (stereo partly drawn) [Cpd. No. 293, 2-chloro-4-((3S)-8-(4-(4-(1-(2-(2,6-dioxopiperidin-3-yl)-1,3-dioxoisoindolin-5-yl)azetidin-3-yl)piperazine-1-carbonyl)phenyl)-3-methyl-2,8-diazaspiro[4.5]decan-2-yl)benzonitrile]",DC50,AR protein [2],0.3 nM
same,DC90,AR protein [2],0.33 nM
same,DC50,AR protein [3],0.14 nM
same,DC90,AR protein [3],0.23 nM
same,DC50,AR protein [4],0.031 nM
same,DC90,AR protein [4],0.41 nM
"C[C@H]1CC2(CCN(c3ccc(C(=O)N4CCC(N5Cc6cc7c(cc6C5)C(=O)N(C5CCC(=O)NC5=O)C7=O)CC4)cc3)CC2)CN1c1ccc(C#N)c(Cl)c1 (stereo partly drawn) [Cpd. No. 307, 2-chloro-4-((3S)-8-(4-(4-(6-(2,6-dioxopiperidin-3-yl)-5,7-dioxo-3,5,6,7-tetrahydropyrrolo[3,4-f]isoindol-2(1H)-yl)piperidine-1-carbonyl)phenyl)-3-methyl-2,8-diazaspiro[4.5]decan-2-yl)benzonitrile]",F,[5]; PO 5 mg/kg vs IV 2 mg/kg,67%
same,AUC(0-t),"[5]; in vivo, iv, 2 mg/kg, IV, dose 2 mg/kg, read-out: IV AUC(0 − t)",50500 ng·h/mL
same,clearance,"[5]; in vivo, iv, 2 mg/kg, IV, dose 2 mg/kg, read-out: IV Cl (converted)",0.667 mL/min/kg
same,half-life,"[5]; in vivo, iv, 2 mg/kg, IV, dose 2 mg/kg, read-out: IV T1/2 (converted)",4.34 h
same,Vd,"[5]; in vivo, iv, 2 mg/kg, IV, dose 2 mg/kg, read-out: IV VSS",0.23 L/kg
same,Cmax,"[5]; in vivo, po, 5 mg/kg",9120 ng/mL
same,Tmax,"[5]; in vivo, po, 5 mg/kg",2 h
same,AUC(0-t),"[5]; in vivo, po, 5 mg/kg, PO, dose 5 mg/kg, read-out: PO AUC(0 − t)",85200 ng·h/mL
same,half-life,"[5]; in vivo, po, 5 mg/kg, PO, dose 5 mg/kg, read-out: PO T1/2 (converted)",4.4 h
same,DC90,AR protein [2],0.11 nM
same,DC50,AR protein [2]; read-out: DC50,0.082 nM
same,DC50,AR protein [3],0.9 nM
same,DC90,AR protein [3],3.1 nM
same,DC90,AR protein [4],0.199 nM
same,DC50,AR protein [4]; read-out: DC50,0.046 nM
N#Cc1ccc(OC2CC3(C2)CN(C(=O)c2ccc(C4CCN(CC5CCN(c6ccc7c(c6)C(=O)N(C6CCC(=O)NC6=O)C7=O)CC5)CC4)cc2)C3)cc1Cl (centres unmarked) [compound 480],degradation at 10 nM,AR protein [6],B (>50% degradation but <90% (24 hr treatment))
same,degradation at 100 nM,AR protein [6],A (>90% degradation (24 hr treatment))
N#Cc1ccc(N2CC3(CN(C(=O)c4ccc(C5CCN(CC6CCN(c7ccc8c(c7)C(=O)N(C7CCC(=O)NC7=O)C8=O)CC6)CC5)cc4)C3)C2)cc1Cl (centres unmarked) [compound 481],degradation at 10 nM,AR protein [6],B (>50% degradation but <90% (24 hr treatment))
same,degradation at 100 nM,AR protein [6],A (>90% degradation (24 hr treatment))
